Assay results taken from ChEMBL document CHEMBL1129223, “1-Oxo-3-aryl-1H-indene-2-carboxylic acid derivatives as selective inhibitors of fibroblast growth factor receptor-1 tyrosine kinase” (Bioorg Med Chem Lett, 1997).

Experiments:
[1] = molecular target: T1, Fibroblast growth factor receptor (Homo sapiens, UniProt P22607+P11362+P22455+P21802); test: Inhibitory activity against fibroblast growth factor receptor (FGFr); format: protein assay
[2] = molecular target: Platelet-derived growth factor receptor (Homo sapiens) (UniProt P09619+P16234); test: Inhibitory activity against platelet-derived growth factor receptor (PDGFr) at 50 uM
[3] = molecular target: T2, Proto-oncogene tyrosine-protein kinase Src (Homo sapiens, UniProt P12931); test: Inhibitory activity against c-src tyrosine kinase
T2 sequence (P12931 2-536 limits assumed): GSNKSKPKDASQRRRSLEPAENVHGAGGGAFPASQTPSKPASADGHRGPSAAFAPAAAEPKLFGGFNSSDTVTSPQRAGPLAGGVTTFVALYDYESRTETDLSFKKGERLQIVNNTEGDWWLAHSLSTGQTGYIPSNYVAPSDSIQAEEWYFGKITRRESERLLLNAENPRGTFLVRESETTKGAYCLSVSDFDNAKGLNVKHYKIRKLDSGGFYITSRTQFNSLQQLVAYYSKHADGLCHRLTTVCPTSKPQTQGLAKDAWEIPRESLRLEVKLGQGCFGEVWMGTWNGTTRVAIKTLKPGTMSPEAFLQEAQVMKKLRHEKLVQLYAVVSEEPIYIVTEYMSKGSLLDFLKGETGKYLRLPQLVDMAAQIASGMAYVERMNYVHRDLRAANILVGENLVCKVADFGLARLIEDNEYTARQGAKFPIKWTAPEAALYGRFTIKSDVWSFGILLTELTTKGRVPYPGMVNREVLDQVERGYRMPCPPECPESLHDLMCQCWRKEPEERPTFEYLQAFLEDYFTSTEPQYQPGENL

[4] = molecular target: T2, Proto-oncogene tyrosine-protein kinase Src; test: Inhibitory activity against c-src tyrosine kinase at 50 uM
[5] = molecular target: T1, Fibroblast growth factor receptor; test: Inhibitory activity against fibroblast growth factor receptor (FGFr) at 50 uM; format: protein assay

T1 sequence (P11362 whole entry, looked up): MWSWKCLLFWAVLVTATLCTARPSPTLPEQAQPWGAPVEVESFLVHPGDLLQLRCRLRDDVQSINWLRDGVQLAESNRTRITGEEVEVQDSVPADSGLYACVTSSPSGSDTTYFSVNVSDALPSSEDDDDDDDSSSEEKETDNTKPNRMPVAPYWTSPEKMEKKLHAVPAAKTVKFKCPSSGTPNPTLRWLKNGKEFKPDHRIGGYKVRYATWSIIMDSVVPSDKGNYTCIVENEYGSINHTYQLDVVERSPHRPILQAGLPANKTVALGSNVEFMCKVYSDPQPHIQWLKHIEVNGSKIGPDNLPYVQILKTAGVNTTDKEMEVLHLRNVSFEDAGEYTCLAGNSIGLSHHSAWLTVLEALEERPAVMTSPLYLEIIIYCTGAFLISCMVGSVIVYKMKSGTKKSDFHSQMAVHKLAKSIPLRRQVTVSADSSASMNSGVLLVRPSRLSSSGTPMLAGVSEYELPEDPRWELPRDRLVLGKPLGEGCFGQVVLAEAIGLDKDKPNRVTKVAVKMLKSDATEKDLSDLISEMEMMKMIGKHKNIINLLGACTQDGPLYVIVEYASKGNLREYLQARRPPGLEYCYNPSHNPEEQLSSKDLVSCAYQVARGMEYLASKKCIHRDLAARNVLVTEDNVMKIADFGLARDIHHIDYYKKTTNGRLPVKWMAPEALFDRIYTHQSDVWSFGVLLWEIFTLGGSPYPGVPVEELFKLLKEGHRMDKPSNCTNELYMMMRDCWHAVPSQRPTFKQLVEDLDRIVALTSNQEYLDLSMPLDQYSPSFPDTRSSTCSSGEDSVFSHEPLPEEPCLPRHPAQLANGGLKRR
T1 sequence (P21802 whole entry, looked up): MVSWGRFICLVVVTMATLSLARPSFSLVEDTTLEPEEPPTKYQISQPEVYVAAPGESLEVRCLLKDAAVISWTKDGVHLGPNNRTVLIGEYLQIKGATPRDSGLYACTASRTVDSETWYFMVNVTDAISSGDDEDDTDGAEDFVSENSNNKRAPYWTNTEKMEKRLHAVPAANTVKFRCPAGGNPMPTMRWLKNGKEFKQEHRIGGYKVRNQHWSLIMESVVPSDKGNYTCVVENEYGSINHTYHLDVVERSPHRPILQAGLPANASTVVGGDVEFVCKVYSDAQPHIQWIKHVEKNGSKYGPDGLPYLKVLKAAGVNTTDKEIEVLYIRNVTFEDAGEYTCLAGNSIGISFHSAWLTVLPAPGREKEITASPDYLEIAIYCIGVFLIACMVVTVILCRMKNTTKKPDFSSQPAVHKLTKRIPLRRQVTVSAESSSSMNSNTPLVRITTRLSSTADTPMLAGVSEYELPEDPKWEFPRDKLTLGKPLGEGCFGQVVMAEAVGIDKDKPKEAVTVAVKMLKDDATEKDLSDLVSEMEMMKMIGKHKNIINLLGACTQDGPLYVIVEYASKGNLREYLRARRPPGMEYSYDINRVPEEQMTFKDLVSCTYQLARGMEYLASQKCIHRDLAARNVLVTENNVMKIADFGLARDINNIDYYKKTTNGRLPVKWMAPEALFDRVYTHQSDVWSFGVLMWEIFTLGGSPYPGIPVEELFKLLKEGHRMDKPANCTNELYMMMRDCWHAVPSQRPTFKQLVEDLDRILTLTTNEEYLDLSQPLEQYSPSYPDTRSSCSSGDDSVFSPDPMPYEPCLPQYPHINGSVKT
T1 sequence (P22455 whole entry, looked up): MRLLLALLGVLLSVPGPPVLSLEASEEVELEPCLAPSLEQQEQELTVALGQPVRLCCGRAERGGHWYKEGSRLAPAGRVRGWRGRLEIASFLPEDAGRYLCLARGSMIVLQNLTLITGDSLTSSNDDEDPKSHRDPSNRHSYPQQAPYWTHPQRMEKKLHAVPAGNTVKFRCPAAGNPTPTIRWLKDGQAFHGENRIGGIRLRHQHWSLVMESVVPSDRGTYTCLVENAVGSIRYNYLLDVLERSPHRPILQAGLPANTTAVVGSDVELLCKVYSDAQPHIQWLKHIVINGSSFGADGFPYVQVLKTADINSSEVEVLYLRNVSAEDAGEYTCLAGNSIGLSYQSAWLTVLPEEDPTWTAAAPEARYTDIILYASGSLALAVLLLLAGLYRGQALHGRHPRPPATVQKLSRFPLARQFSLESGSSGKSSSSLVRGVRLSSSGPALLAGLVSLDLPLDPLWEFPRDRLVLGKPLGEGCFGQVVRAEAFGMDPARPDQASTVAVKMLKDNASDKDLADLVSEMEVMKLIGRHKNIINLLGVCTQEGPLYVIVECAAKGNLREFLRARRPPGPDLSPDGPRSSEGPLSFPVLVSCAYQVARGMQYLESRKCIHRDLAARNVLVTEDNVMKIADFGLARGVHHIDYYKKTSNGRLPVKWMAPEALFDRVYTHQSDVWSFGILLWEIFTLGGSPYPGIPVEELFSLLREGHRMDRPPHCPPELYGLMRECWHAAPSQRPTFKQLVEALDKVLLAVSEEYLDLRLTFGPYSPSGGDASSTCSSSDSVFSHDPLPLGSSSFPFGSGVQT
T1 sequence (P22607 whole entry, looked up): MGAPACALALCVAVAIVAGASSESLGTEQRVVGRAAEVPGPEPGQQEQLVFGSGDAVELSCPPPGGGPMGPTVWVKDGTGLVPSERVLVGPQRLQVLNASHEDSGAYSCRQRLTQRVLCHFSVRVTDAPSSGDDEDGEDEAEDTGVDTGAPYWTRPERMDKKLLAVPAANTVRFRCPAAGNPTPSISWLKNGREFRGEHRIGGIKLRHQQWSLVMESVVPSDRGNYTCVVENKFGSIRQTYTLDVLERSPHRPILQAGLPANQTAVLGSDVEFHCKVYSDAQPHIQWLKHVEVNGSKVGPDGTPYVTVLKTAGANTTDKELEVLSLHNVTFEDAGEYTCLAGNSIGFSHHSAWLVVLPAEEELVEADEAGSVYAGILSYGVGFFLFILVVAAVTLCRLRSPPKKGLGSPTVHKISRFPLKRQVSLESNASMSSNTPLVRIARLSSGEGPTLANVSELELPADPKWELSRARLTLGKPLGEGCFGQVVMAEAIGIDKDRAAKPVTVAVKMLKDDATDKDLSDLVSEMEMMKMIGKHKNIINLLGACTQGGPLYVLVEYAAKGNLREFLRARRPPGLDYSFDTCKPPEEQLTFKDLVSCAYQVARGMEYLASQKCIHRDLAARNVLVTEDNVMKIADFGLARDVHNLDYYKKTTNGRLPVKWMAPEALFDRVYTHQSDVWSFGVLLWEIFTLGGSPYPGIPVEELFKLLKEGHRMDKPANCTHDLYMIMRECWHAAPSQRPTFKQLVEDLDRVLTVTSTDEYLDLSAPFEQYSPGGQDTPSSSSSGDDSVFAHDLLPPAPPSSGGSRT

Row | SMILES | IC50 [1] | inhibition [2] | IC50 [3] | inhibition [4] | inhibition [5]
1 | COC(=O)C1=C(c2ccccc2)c2ccccc2C1=O | 5.1 µM | 19% | 25 µM |  | 
2 | CNC(=O)C1=C(c2ccccc2)c2ccccc2C1=O | 21 µM | 24% |  | 16% | 
3 | COC(=O)C1=C(c2ccccc2)c2cc(C)ccc2C1=O.COC(=O)C1=C(c2ccccc2)c2ccc(C)cc2C1=O | 6.4 µM | 20% | 33 µM |  | 
4 | COC(=O)C1=C(c2ccccc2)c2cccc(C)c2C1=O | 44 µM | 11% |  | 38% | 
5 | C/C=C1\c2ccccc2C(=O)C1C(N)=O (configuration not stated) |  | 8% |  | 3% | 26%
6 | NC(=O)C1=C(c2ccccc2)c2ccccc2C1O (configuration not stated) |  | 10% |  | 27% | 29%
7 | NC(=O)C1=C2CCCc3cccc(c32)C1=O | 4.2 µM | 25% |  | 48% | 
8 | CCN(CC)CCNC(=O)C1=C(c2ccccc2)c2ccccc2C1=O |  | 8% |  | 11% | 21%
9 | O=C(O)C1=C(c2ccccc2)c2ccccc2C1=O | 25 µM | 9% |  | 7% | 
10 | NC(=O)C1C(=O)c2ccccc2C1c1ccccc1 (configuration not stated) |  | 16% |  | 8% | 23%
11 | NC(=O)C1=C(c2ccc(Cl)cc2)c2ccccc2C1=O | 5.4 µM | 27% | 9.6 µM |  | 
12 | NC(=O)C1=C(c2ccccc2)c2ccccc2C1=O | 4.7 µM | 25% | 3.6 µM |  | 
13 | COC(=O)C1=C(c2ccccc2)c2cc([N+](=O)[O-])ccc2C1=O.COC(=O)C1=C(c2ccccc2)c2ccc([N+](=O)[O-])cc2C1=O | 10 µM | 19% | 8.3 µM |  | 
14 | COc1ccc(C2=C(C(N)=O)C(=O)c3ccccc32)cc1 | 10.6 µM | 23% | 4 µM |  | 
15 | COC(=O)C1=C(c2ccccc2)c2cc(Cl)ccc2C1=O.COC(=O)C1=C(c2ccccc2)c2ccc(Cl)cc2C1=O | 6.2 µM | 25% |  | 10% | 
16 | COC(=O)C1=C(c2ccccc2)c2c(OC)cccc2C1=O | 15 µM | 19% | 13 µM |  | 
17 | COC(=O)C1=C(c2ccccc2)c2ccncc2C1=O | 6.8 µM | 27% | 7.6 µM |  | 
18 | CN(C)C(=O)C1=C(c2ccccc2)c2ccccc2C1=O |  | 10% |  | 1% | 10%
19 | CCC1=C(C(N)=O)C(=O)c2ccccc21 | 9.2 µM | 8.7% |  | 53% | 
